Laboratory results: the CheMixHub viscosity set

Assay: xn = mol fraction of the nth substance listed

Fc1ccccc1 + O=CN1CCOCC1
viscosity [mPa·s], 101 kPa
Details | x2 = 0.0946 | x2 = 0.1904 | x2 = 0.2873 | x2 = 0.3854 | x2 = 0.4847 | x2 = 0.5853 | x2 = 0.687 | x2 = 0.79 | x2 = 0.8944
303.15 K | 0.72 | 0.957 | 1.245 | 1.595 | 2.028 | 2.579 | 3.265 | 4.113 | 5.175
308.15 K | 0.677 | 0.895 | 1.157 | 1.466 | 1.846 | 2.325 | 2.919 | 3.64 | 4.539
313.15 K | 0.641 | 0.845 | 1.079 | 1.361 | 1.711 | 2.139 | 2.669 | 3.314 | 4.111

O=Cc1ccccc1 + O=[N+]([O-])c1ccccc1
303.15 K, 101 kPa
Details | viscosity [mPa·s]
x1 = 0.3043 | 1.495
x1 = 0.6049 | 1.405
x1 = 0.9018 | 1.295

O=Cc1ccccc1 + OCc1ccccc1
293.15 K, 100 kPa
Details | viscosity [mPa·s]
x2 = 0.1032 | 1.695
x2 = 0.2 | 1.882
x2 = 0.3007 | 2.114
x2 = 0.4023 | 2.322
x2 = 0.4989 | 2.633
x2 = 0.6013 | 3.114
x2 = 0.688 | 3.591
x2 = 0.8 | 4.366
x2 = 0.8984 | 5.395

[Br-].[Br-].[Br-].[Br-].[Sn+4] + Oc1ccccc1
313.15 K, 101 kPa
Details | viscosity [mPa·s]
x1 = 0.1 | 4.21
x1 = 0.2 | 3.817
x1 = 0.3 | 3.351
x1 = 0.4 | 3.034
x1 = 0.5 | 2.762
x1 = 0.6 | 2.56
x1 = 0.7 | 2.387
x1 = 0.8 | 2.262
x1 = 0.9 | 2.137

c1ccc(Nc2ccccc2)cc1 + Oc1ccccc1
viscosity [mPa·s], 101 kPa
Details | 303.15 K | 313.15 K | 323.1 K
x1 = 0.21 | – | – | 3.825
x1 = 0.444 | – | – | 4.362
x1 = 0.683 | – | – | 5.01
x2 = 0.133 | 12.57 | 7.95 | –
x2 = 0.2435 | 11.65 | 7.43 | –
x2 = 0.3531 | 10.72 | 6.93 | –
x2 = 0.4454 | 10.03 | 6.52 | –
x2 = 0.5306 | 9.47 | 6.2 | –
x2 = 0.6104 | 8.98 | 5.91 | –
x2 = 0.6735 | 8.61 | 5.68 | –
x2 = 0.7266 | 8.28 | 5.51 | –
x2 = 0.7989 | 7.91 | 5.28 | –
x2 = 0.8548 | 7.65 | 5.13 | –
x2 = 0.908 | 7.42 | 4.98 | –
x2 = 0.9541 | 7.255 | 4.845 | –

O=C(O)C(Cl)Cl + [Cl-].[Cl-].[Cl-].[Cl-].[Sn+4]
viscosity [mPa·s], 101 kPa
Details | x2 = 0.1 | x2 = 0.2027 | x2 = 0.3211 | x2 = 0.5002 | x2 = 0.805
308.15 K | 3.657 | 2.621 | 2.121 | 1.445 | 0.831
323.15 K | 2.609 | 1.982 | 1.63 | 1.09 | 0.705

C=C(C)C(=O)OCCCCCCC + c1ccccc1
viscosity [mPa·s], 101 kPa
Details | x1 = 0.002 | x1 = 0.004 | x1 = 0.01 | x1 = 0.02
303 K | 0.5525 | 0.5621 | 0.5849 | 0.5828
313 K | 0.4874 | 0.4915 | 0.5123 | 0.5115
323 K | 0.4321 | 0.4362 | 0.4518 | 0.4535

CCCCCCCCN + c1ccccc1
303.15 K, 101 kPa
Details | viscosity [mPa·s]
x2 = 0.1044 | 1.099
x2 = 0.3007 | 0.9459
x2 = 0.498 | 0.7915
x2 = 0.597 | 0.7318
x2 = 0.6967 | 0.6798
x2 = 0.7998 | 0.6239
x2 = 0.899 | 0.5891

Cc1ccc(C)cc1 + c1ccccc1
Details | viscosity [mPa·s]
293.15 K, 101.33 kPa, x2 = 0.2202 | 0.631
293.15 K, 101.33 kPa, x2 = 0.42 | 0.623
293.15 K, 101.33 kPa, x2 = 0.7393 | 0.627
293.15 K, 101.33 kPa, x2 = 0.8207 | 0.628
298 K, 101.3 kPa, x2 = 0.2099 | 0.603
298 K, 101.3 kPa, x2 = 0.3766 | 0.596
298 K, 101.3 kPa, x2 = 0.5839 | 0.596
298 K, 101.3 kPa, x2 = 0.7205 | 0.596
298 K, 101.3 kPa, x2 = 0.8802 | 0.599
303 K, 101 kPa, x1 = 0.1002 | 0.5613
303 K, 101 kPa, x1 = 0.2018 | 0.5603
303 K, 101 kPa, x1 = 0.3012 | 0.5605
303 K, 101 kPa, x1 = 0.397 | 0.5611
303 K, 101 kPa, x1 = 0.4983 | 0.5617
303 K, 101 kPa, x1 = 0.5959 | 0.5628
303 K, 101 kPa, x1 = 0.7005 | 0.5641
303 K, 101 kPa, x1 = 0.8019 | 0.5666
303 K, 101 kPa, x1 = 0.8988 | 0.5684
303.15 K, 101.33 kPa, x2 = 0.2202 | 0.557
303.15 K, 101.33 kPa, x2 = 0.42 | 0.55
303.15 K, 101.33 kPa, x2 = 0.7393 | 0.55
303.15 K, 101.33 kPa, x2 = 0.8207 | 0.553
313 K, 101 kPa, x1 = 0.1002 | 0.4975
313 K, 101 kPa, x1 = 0.2018 | 0.4982
313 K, 101 kPa, x1 = 0.3012 | 0.4993
313 K, 101 kPa, x1 = 0.397 | 0.502
313 K, 101 kPa, x1 = 0.4983 | 0.5024
313 K, 101 kPa, x1 = 0.5959 | 0.5039
313 K, 101 kPa, x1 = 0.7005 | 0.5071
313 K, 101 kPa, x1 = 0.8019 | 0.509
313 K, 101 kPa, x1 = 0.8988 | 0.5122
313.15 K, 101.33 kPa, x2 = 0.2202 | 0.497
313.15 K, 101.33 kPa, x2 = 0.42 | 0.493
313.15 K, 101.33 kPa, x2 = 0.7393 | 0.49
313.15 K, 101.33 kPa, x2 = 0.8207 | 0.485
318 K, 101.3 kPa, x2 = 0.1977 | 0.4856
318 K, 101.3 kPa, x2 = 0.3756 | 0.4775
318 K, 101.3 kPa, x2 = 0.5821 | 0.4739
318 K, 101.3 kPa, x2 = 0.7212 | 0.472
318 K, 101.3 kPa, x2 = 0.8882 | 0.4718
323 K, 101 kPa, x1 = 0.1002 | 0.4435
323 K, 101 kPa, x1 = 0.2018 | 0.4443
323 K, 101 kPa, x1 = 0.3012 | 0.4462
323 K, 101 kPa, x1 = 0.397 | 0.4502
323 K, 101 kPa, x1 = 0.4983 | 0.4513
323 K, 101 kPa, x1 = 0.5959 | 0.4527
323 K, 101 kPa, x1 = 0.7005 | 0.4554
323 K, 101 kPa, x1 = 0.8019 | 0.4585
323 K, 101 kPa, x1 = 0.8988 | 0.4596
323.15 K, 101.33 kPa, x2 = 0.2202 | 0.45
323.15 K, 101.33 kPa, x2 = 0.42 | 0.447
323.15 K, 101.33 kPa, x2 = 0.7393 | 0.442
323.15 K, 101.33 kPa, x2 = 0.8207 | 0.435

O=Cc1ccccc1 + c1ccccc1
viscosity [mPa·s], 101 kPa
Details | x1 = 0.1 | x1 = 0.2 | x1 = 0.4 | x1 = 0.5 | x1 = 0.6
298.15 K | 0.655 | 0.714 | 0.847 | 0.928 | 1.012
308.15 K | 0.583 | 0.625 | 0.742 | 0.809 | 0.885
318.15 K | 0.509 | 0.551 | 0.667 | 0.711 | 0.773
323.15 K | 0.477 | 0.517 | – | 0.665 | 0.724
